Reference: patent US6525001B1, “Substituted pyrimidine and pyridine herbicides” (Mid-American Commercialization Corporation, priority 1997, dated 2003)

How the values were obtained:
Format in all cases: in vivo
[1] = tested on: blackgrass (Alopecurus myosuroides); assay: Test B pre-/postemergence; design: key: 0 is no effect; 10 is complete control
Procedure, shortened: (§1)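 Scored visually 0 (none) to 10 (complete control) against untreated plants after twelve to sixteen greenhouse days. Test chemicals, formulated in surfactant-containing non-phytotoxic solvent, applied to soil after planting and, separately, onto 1- to 4-leaf (2–18 cm) plants.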

[2] = tested on: crabgrass (Digitaria sanguinalis); assay: Test B pre-/postemergence; design: key: 0 is no effect; 10 is complete control
Procedure, shortened: as §1

[3] = tested on: purple nutsedge (Cyperus rotundus); assay: Test B pre-/postemergence; design: key: 0 is no effect; 10 is complete control
Procedure, shortened: as §1

soybean (Glycine max) = assay: Test B pre-/postemergence; design: key: 0 is no effect; 10 is complete control
Procedure, shortened: as §1

wild oat (Avena fatua) = assay: Test B pre-/postemergence; design: key: 0 is no effect; 10 is complete control
Procedure, shortened: as §1

[4] = tested on: lambsquarters (Chenopodium album); assay: Test C; design: key: 0 was no effect; 100 was complete control; details: PREEMERGENCE
[5] = tested on: purple nutsedge (Cyperus rotundus); assay: Test C; design: key: 0 was no effect; 100 was complete control; details: PREEMERGENCE
[6] = tested on: common groundsel (Senecio vulgaris); assay: Test E pre-/postemergence/post directed; design: key: 0 is no effect; 100 is complete control; details: PREEMERGENCE
Text: (§2) Seeds, tubers, or plant parts of alexandergrass (Brachiaria plantaginea), annual bluegrass (Poa annua), arrowleaf sida (Sida rhombifolia), barnyardgrass (Echinochloa crus-galli), bermudagrass (Cynodon dactylon), citrus (Citrus sinensis), common chickweed (Stellaria media), common purslane (Portulaca oleracea), common ragweed (Ambrosia elatior), common groundsel (Senecio vulgaris), dallisgrass (Paspalum dilatatum), goosegrass (Eleusine indica), green foxtail (Setaria viridis), guineagrass (Panicum maximum), itchgrass (Rottboellia exaltata), johnson grass (Sorghum halepense), kochia (Kochia scoparia), large crabgrass (Digitaria sanguinalis), leafy spurge (Euphorbia esula), pitted morningglory (Ipomoea lacunosa), purple nutsedge (Cyperus rotundus), quackgrass (Agropyron repens), Russian thistle (Salsola kali), sandbur (Cenchrus echinatus), sourgrass (Trichachne insularis), Spanishneedles (Bidens bipinnata), sugarcane (Saccharum officinarum), surinam grass (Brachiaria decumbens) and tall mallow (Malva sylvestris) were planted into greenhouse pots of flats containing greenhouse planting medium. Plant species were grown grown in separate pots or individual compartments. Preemergence applications were made within one day of planting the seed or plant part. Postemergence applications were applied when the plants were in the two to four leaf stage (three to twenty cm).
(§3) Test chemicals were formulated in a non-phytotoxic solvent mixture which included a surfactant and applied preemergence to the soil surface, postemergence to the plants or as a post directed spray to plants and soil at the base of the target species. Untreated control plants and treated plants were placed in the greenhouse and visually evaluated for injury 13 to 21 days after herbicide application. Plant response ratings, summarized in Table E, are based on a 0 to 100 scale where 0 is no injury and 100 is complete control. A dash (−) response means no test result.

[7] = tested on: dallisgrass (Paspalum dilatatum); assay: Test E pre-/postemergence/post directed; design: key: 0 is no effect; 100 is complete control
Text: as §2, §3

[8] = tested on: guineagrass (Panicum maximum); assay: Test E pre-/postemergence/post directed; design: key: 0 is no effect; 100 is complete control
Text: as §2, §3

[9] = tested on: sourgrass (Trichachne insularis); assay: Test E pre-/postemergence/post directed; design: key: 0 is no effect; 100 is complete control
Text: as §2, §3

[10] = tested on: tall mallow (Malva sylvestris); assay: Test E pre-/postemergence/post directed; design: key: 0 is no effect; 100 is complete control; details: PREEMERGENCE
Text: as §2, §3

Compound: COc1cnc(-c2ccc(C(F)(F)F)cc2)nc1Cc1cccc(C(F)(F)F)c1 [Compound 23]
- Plant response rating, Blackgrass ([1]; Rate 62 g/ha, Postemergence): 6
- Blackgrass plant response rating ([1]; Rate 62 g/ha, Preemergence): 6
- Plant response rating, Blackgrass ([1]; Rate 125 g/ha, Postemergence): 7
- Blackgrass plant response rating ([1]; Rate 125 g/ha, Preemergence): 9
- Plant response rating, Blackgrass ([1]; Rate 250 g/ha, Postemergence): 9
- Plant response rating, Blackgrass ([1]; Rate 250 g/ha, Preemergence): 9
- Plant response rating, Crabgrass ([2]; Rate 62 g/ha, Postemergence): 7
- Crabgrass plant response rating ([2]; Rate 62 g/ha, Preemergence): 9
- Plant response rating, Crabgrass ([2]; Rate 125 g/ha, Postemergence): 9
- Crabgrass plant response rating ([2]; Rate 125 g/ha, Preemergence): 10
- Plant response rating, Crabgrass ([2]; Rate 250 g/ha, Postemergence): 9
- Plant response rating, Crabgrass ([2]; Rate 250 g/ha, Preemergence): 10
- Plant response rating, Nutsedge ([3]; Rate 62 g/ha, Postemergence): 0
- Plant response rating, Nutsedge ([3]; Rate 125 g/ha, Postemergence): 0
- Nutsedge plant response rating ([3]; Rate 125 g/ha, Preemergence): 0
- Plant response rating, Soybean (soybean (Glycine max); Rate 62 g/ha, Postemergence): 8
- Soybean plant response rating (soybean (Glycine max); Rate 62 g/ha, Preemergence): 1
- Plant response rating, Soybean (soybean (Glycine max); Rate 125 g/ha, Postemergence): 8
- Soybean plant response rating (soybean (Glycine max); Rate 125 g/ha, Preemergence): 1
- Plant response rating, Soybean (soybean (Glycine max); Rate 250 g/ha, Postemergence): 8
- Plant response rating, Soybean (soybean (Glycine max); Rate 250 g/ha, Preemergence): 1
- Plant response rating, Wild oats (wild oat (Avena fatua); Rate 62 g/ha, Postemergence): 5
- Wild oats plant response rating (wild oat (Avena fatua); Rate 62 g/ha, Preemergence): 7
- Plant response rating, Wild oats (wild oat (Avena fatua); Rate 125 g/ha, Postemergence): 6
- Wild oats plant response rating (wild oat (Avena fatua); Rate 125 g/ha, Preemergence): 8
- Plant response rating, Wild oats (wild oat (Avena fatua); Rate 250 g/ha, Postemergence): 9
- Plant response rating, Wild oats (wild oat (Avena fatua); Rate 250 g/ha, Preemergence): 9
- Plant response rating, Lambsquarters ([4]; Rate 35 g/ha): 60
- Plant response rating, Lambsquarters ([4]; Rate 70 g/ha): 100
- Plant response rating, Lambsquarters ([4]; Rate 140 g/ha): 100
- Plant response rating, Purple nutsedge ([5]; Rate 35 g/ha): 0
- Plant response rating, Purple nutsedge ([5]; Rate 70 g/ha): 0
- Plant response rating, Purple nutsedge ([5]; Rate 140 g/ha): 0
- Plant response rating, Com. groundsel ([6]; Rate 32 g/ha): 100
- Plant response rating, Com. groundsel ([6]; Rate 64 g/ha): 100
- Plant response rating, Com. groundsel ([6]; Rate 125 g/ha): 100
- Plant response rating, Com. groundsel ([6]; Rate 250 g/ha): 100
- Plant response rating, Dallisgrass ([7]; POSTEMERGENCE, Rate 250 g/ha): 40
- Plant response rating, Dallisgrass ([7]; PREEMERGENCE, Rate 32 g/ha): 80
- Plant response rating, Dallisgrass ([7]; PREEMERGENCE, Rate 64 g/ha): 85
- Plant response rating, Dallisgrass ([7]; PREEMERGENCE, Rate 125 g/ha): 90
- Plant response rating, Dallisgrass ([7]; PREEMERGENCE, Rate 250 g/ha): 100
- Plant response rating, Guineagrass ([8]; POSTEMERGENCE, Rate 250 g/ha): 75
- Plant response rating, Guineagrass ([8]; PREEMERGENCE, Rate 32 g/ha): 80
- Plant response rating, Guineagrass ([8]; PREEMERGENCE, Rate 64 g/ha): 98
- Plant response rating, Guineagrass ([8]; PREEMERGENCE, Rate 125 g/ha): 98
- Plant response rating, Guineagrass ([8]; PREEMERGENCE, Rate 250 g/ha): 100
- Plant response rating, Sourgrass ([9]; POSTEMERGENCE, Rate 250 g/ha): 30
- Plant response rating, Sourgrass ([9]; PREEMERGENCE, Rate 32 g/ha): 98
- Plant response rating, Sourgrass ([9]; PREEMERGENCE, Rate 64 g/ha): 98
- Plant response rating, Sourgrass ([9]; PREEMERGENCE, Rate 125 g/ha): 100
- Plant response rating, Sourgrass ([9]; PREEMERGENCE, Rate 250 g/ha): 100
- Plant response rating, Tall Mallow ([10]; Rate 32 g/ha): 80
- Plant response rating, Tall Mallow ([10]; Rate 64 g/ha): 85
- Plant response rating, Tall Mallow ([10]; Rate 125 g/ha): 85
- Plant response rating, Tall Mallow ([10]; Rate 250 g/ha): 90

Compound: Cc1cnc(-c2ccc(C(F)(F)F)cc2)nc1Cc1cccc(C(F)(F)F)c1 [Example 1, 5-methyl-2-[4-(trifluoromethyl)phenyl]-4-[[3-(trifluoromethyl)phenyl]methyl]pyrimidine]
- Plant response rating, Blackgrass ([1]; Rate 62 g/ha, Postemergence): 7
- Blackgrass plant response rating ([1]; Rate 62 g/ha, Preemergence): 8
- Plant response rating, Blackgrass ([1]; Rate 125 g/ha, Postemergence): 7
- Blackgrass plant response rating ([1]; Rate 125 g/ha, Preemergence): 9
- Plant response rating, Blackgrass ([1]; Rate 250 g/ha, Postemergence): 9
- Plant response rating, Blackgrass ([1]; Rate 250 g/ha, Preemergence): 10
- Plant response rating, Blackgrass ([1]; Rate 500 g/ha, Postemergence): 9
- Plant response rating, Blackgrass ([1]; Rate 500 g/ha, Preemergence): 10
- Plant response rating, Crabgrass ([2]; Rate 62 g/ha, Postemergence): 4
- Crabgrass plant response rating ([2]; Rate 62 g/ha, Preemergence): 10
- Plant response rating, Crabgrass ([2]; Rate 125 g/ha, Postemergence): 9
- Crabgrass plant response rating ([2]; Rate 125 g/ha, Preemergence): 10
- Plant response rating, Crabgrass ([2]; Rate 250 g/ha, Postemergence): 9
- Plant response rating, Crabgrass ([2]; Rate 250 g/ha, Preemergence): 10
- Plant response rating, Crabgrass ([2]; Rate 500 g/ha, Postemergence): 9
- Plant response rating, Crabgrass ([2]; Rate 500 g/ha, Preemergence): 10
- Nutsedge plant response rating ([3]; Rate 62 g/ha, Preemergence): 0
- Nutsedge plant response rating ([3]; Rate 125 g/ha, Preemergence): 0
- Plant response rating, Nutsedge ([3]; Rate 250 g/ha, Postemergence): 1
- Plant response rating, Nutsedge ([3]; Rate 500 g/ha, Postemergence): 2
- Plant response rating, Nutsedge ([3]; Rate 500 g/ha, Preemergence): 1
- Plant response rating, Soybean (soybean (Glycine max); Rate 62 g/ha, Postemergence): 8
- Soybean plant response rating (soybean (Glycine max); Rate 62 g/ha, Preemergence): 1
- Plant response rating, Soybean (soybean (Glycine max); Rate 125 g/ha, Postemergence): 8
- Soybean plant response rating (soybean (Glycine max); Rate 125 g/ha, Preemergence): 1
- Plant response rating, Soybean (soybean (Glycine max); Rate 250 g/ha, Postemergence): 9
- Plant response rating, Soybean (soybean (Glycine max); Rate 250 g/ha, Preemergence): 3
- Plant response rating, Soybean (soybean (Glycine max); Rate 500 g/ha, Postemergence): 9
- Plant response rating, Soybean (soybean (Glycine max); Rate 500 g/ha, Preemergence): 5
- Plant response rating, Wild oats (wild oat (Avena fatua); Rate 62 g/ha, Postemergence): 4
- Wild oats plant response rating (wild oat (Avena fatua); Rate 62 g/ha, Preemergence): 8
- Plant response rating, Wild oats (wild oat (Avena fatua); Rate 125 g/ha, Postemergence): 7
- Wild oats plant response rating (wild oat (Avena fatua); Rate 125 g/ha, Preemergence): 9
- Plant response rating, Wild oats (wild oat (Avena fatua); Rate 250 g/ha, Postemergence): 7
- Plant response rating, Wild oats (wild oat (Avena fatua); Rate 250 g/ha, Preemergence): 9
- Plant response rating, Wild oats (wild oat (Avena fatua); Rate 500 g/ha, Postemergence): 9
- Plant response rating, Wild oats (wild oat (Avena fatua); Rate 500 g/ha, Preemergence): 10
- Plant response rating, Lambsquarters ([4]; Rate 35 g/ha): 100
- Plant response rating, Lambsquarters ([4]; Rate 70 g/ha): 100
- Plant response rating, Lambsquarters ([4]; Rate 140 g/ha): 100
- Plant response rating, Purple nutsedge ([5]; Rate 35 g/ha): 0
- Plant response rating, Purple nutsedge ([5]; Rate 70 g/ha): 0
- Plant response rating, Purple nutsedge ([5]; Rate 140 g/ha): 0
- Plant response rating, Com. groundsel ([6]; Rate 64 g/ha): 100
- Plant response rating, Com. groundsel ([6]; Rate 125 g/ha): 100
- Plant response rating, Com. groundsel ([6]; Rate 250 g/ha): 100
- Plant response rating, Dallisgrass ([7]; POSTEMERGENCE, Rate 250 g/ha): 90
- Plant response rating, Dallisgrass ([7]; PREEMERGENCE, Rate 32 g/ha): 98
- Plant response rating, Dallisgrass ([7]; PREEMERGENCE, Rate 64 g/ha): 100
- Plant response rating, Dallisgrass ([7]; PREEMERGENCE, Rate 125 g/ha): 100
- Plant response rating, Dallisgrass ([7]; PREEMERGENCE, Rate 250 g/ha): 100
- Plant response rating, Guineagrass ([8]; POSTEMERGENCE, Rate 250 g/ha): 70
- Plant response rating, Guineagrass ([8]; PREEMERGENCE, Rate 32 g/ha): 90
- Plant response rating, Guineagrass ([8]; PREEMERGENCE, Rate 64 g/ha): 100
- Plant response rating, Guineagrass ([8]; PREEMERGENCE, Rate 125 g/ha): 100
- Plant response rating, Guineagrass ([8]; PREEMERGENCE, Rate 250 g/ha): 100
- Plant response rating, Sourgrass ([9]; POSTEMERGENCE, Rate 250 g/ha): 30
- Plant response rating, Sourgrass ([9]; PREEMERGENCE, Rate 32 g/ha): 100
- Plant response rating, Sourgrass ([9]; PREEMERGENCE, Rate 64 g/ha): 100
- Plant response rating, Sourgrass ([9]; PREEMERGENCE, Rate 125 g/ha): 100
- Plant response rating, Sourgrass ([9]; PREEMERGENCE, Rate 250 g/ha): 100
- Plant response rating, Tall Mallow ([10]; Rate 32 g/ha): 100
- Plant response rating, Tall Mallow ([10]; Rate 64 g/ha): 100
- Plant response rating, Tall Mallow ([10]; Rate 125 g/ha): 100
- Plant response rating, Tall Mallow ([10]; Rate 250 g/ha): 100
